Columns and labels:
mice [1] = experiment: Effect on maximum electroshock convulsions in mice; assay type: in vivo, Chbb:NMRI-mice; details: 200 mg/kg p.o.; for Number of protected animals: N = 10
Description: According to Swinyard, Brown and Goodman [J. Pharmacol. exp. Ther. 106, 319 (1952)], 200 mg/kg of substance B in aqua dist. solution were administered perorally to 10 male Chbb:NMRI-mice (SPF). After 30, 150 and 300 minutes tonic extensor spasms were induced by alternating current via head-electrodes (50 mA, 50 Hz, 2 sec. duration). Tonic extensor spasms of the extremities cannot be observed after treatment with substances having an anticonvulsive activity.

beagles = experiment: Test for subacute toxicity in the dog; details: in vivo
Description: The test was carried out in each 3 male and 3 female beagles. Over a period of 5 weeks 750 mg/kg of substance B were administered orally.
After the test period of 5 weeks the animals were killed and the same organs as above were taken for histological examination.

rats [2] = experiment: Effect on motility of rats (sedative or stimulating effect); assay type: in vivo, Chbb:THOM-rats; details: 100 mg/kg p.o.
Description: In analogy to the method described by Fuhrer and Feldhofen (Arzneimittel-Forschung 11, 1027, 1961) substance B was tested on 6 female Chbb:THOM-rats (SPF) having a body weight of 160-190 gm, after administration of 100 mg/kg p.o. in a suspension of 1% tylose. The motility of the rats in cages was measured for 30 minutes one hour after administration of the test compound. A control group received only tylose. The change in motility given in percent with regard to that of the control group was determined.

[3] = Stability of the solid substance in daylight and at 60° C.; assay type: physicochemical; details: daylight and 60° C., absence and presence of light, 4 weeks
Description: For the stability test, substance B at a concentration of 1% was dissolved in 0.1 N hydrochloric acid and kept at room temperature for 27 days. […] The solid substance was furthermore tested in daylight and at 60° C. in the absence and in the presence of light for 4 weeks.

rats [4] = experiment: Effect on the kaolin edema in rats; assay type: in vivo, Chbb:THOM-rats; details: 100 mg/kg p.o.
Description: According to Hillebrecht [Arzneimittel-Forschung 4, 607 (1954)] an edema was induced in 20 Chbb:THOM-rats (SPF) of both sexes having a body weight of 125-150 gm by subplantar injection of 0.05 ml of a 10% kaolin suspension in the hind paw. 30 minutes before, 100 mg/kg of substance B as aqua dist. solution was orally administered to 10 animals. Ten control animals received only the solvent. The thickness of the paw was measured before the administration of the test compound and 5 hours after administration. The edema-altering effect was expressed in percent of the average degree of swelling of the control animals.

thrombocyte aggregation = experiment: Effect on thrombocyte aggregation induced by collagen; assay type: cell-based; details: 1×10^-4 mol/liter, collagen-induced
Description: The thrombocyte aggregation was measured according to Born and Cross [J. Physiol. 170, 397 (1964)] in platelet-rich plasma obtained by centrifuging citrate blood. The change in the maximum aggregation rate in % compared with a control, and the percent change in the "optical density" were the measured parameters. The aggregation was induced by collagen.

[5] = system: Staphylococcus aureus SG 511; experiment: Bacteriostasis, agar diffusion test; assay type: cell-based; details: 16,000 μg/ml
Description: (§1) Substance B was tested with regard to its bacteria- and fungi-inhibiting effect by the serial dilution test and agar diffusion test.

Streptococcus Aronson = experiment: Bacteriostasis, agar diffusion test; assay type: cell-based; details: 16,000 μg/ml
Description: as §1

[6] = system: Serratia marcescens ATCC 13880; experiment: Bacteriostasis, agar diffusion test; assay type: cell-based; details: 16,000 μg/ml
Description: as §1

[7] = system: Pseudomonas aeruginosa Hbg.; experiment: Bacteriostasis, agar diffusion test; assay type: cell-based; details: 16,000 μg/ml
Description: as §1

Sc. pyogenes ATCC 8688 = experiment: Bacteriostasis, agar diffusion test; assay type: cell-based; details: 16,000 μg/ml
Description: as §1

[8] = system: Escherichia coli ATCC 9637; experiment: Bacteriostasis, agar diffusion test; assay type: cell-based; details: 16,000 μg/ml
Description: as §1

mice [9] = experiment: Ability of mice to hold themselves in rotating cylinders (muscle relaxing and/or ataxic effect); assay type: in vivo, Chbb:NMRI-mice; details: 400 mg/kg p.o.; for Animals which fell out: N = 10
Description: In analogy to the method described by Young and Lewis [Science 105, 368 (1947)], 10 female Chbb:NMRI-mice (SPF) having a body weight of 20-26 gm were tested to determine whether they were able to hold themselves in rotating cylinders after oral administration of 400 mg/kg of substance in aqua dist. The measurements were carried out 30-60, 90-120, 210-240 and 270-300 minutes after administration.

taste testers [10] = experiment: Determination of the threshold concentration (sweet taste); assay type: in vivo
Description: Aqueous solutions having concentrations of 1:12,500, 1:25,000, 1:50,000, and 1:100,000 were prepared of test compounds A, B and C and of comparison compounds X, Y and Z, and each was evaluated at 5 taste testers according to the following scoring system: Very sweet (=3 points), medium sweet (=2 points), weakly sweet (=1 point), and not sweet (=0 point). The tests were carried out as described by H. G. Schutz and F. J. Pilgrim in Food Research 22, 206 (1957). The dilution perceptible as sweet was defined as having the concentration at which the average value of the evaluation points reached 1.0 or more.

taste testers [11] = experiment: Determination of the taste quality; assay type: in vivo
Description: The tests were performed in analogy to the method of DuBois, G. A. Crosby, R. A. Stephanson and R. E. Wingard Jr., J. Agric. […] The test compounds were used as aqueous solutions at a concentration which corresponds to an about 5% saccharose solution. As comparison compound saccharose was used. The tests were carried out under identical conditions. Only the characterization of the taste was evaluated, because the intensity was already determined in the preceding experiments. The following criteria were determined by each tester: Percentage sweet to percentage bitter to percentage another taste quality. Furthermore, the presence or absence of an after taste of the individual test compounds was determined. Each substance was tested twice with regard to five different determinations.

Q: With `O=C1NS(=O)(=O)c2cccc(O)c21.[Na]` as the compound, how does the “anticonvulsive activity (in words)” value (mice [1]) read?
A: Its value is “does not show any anticonvulsive activity”.

Q: And the “Number of protected animals” value (mice [1]; 30 min)?
A: The value was 0.

Q: What about the “Number of protected animals” value (mice [1]; 150 min) of the same compound?
A: Its value is 0.

Q: And the “Number of protected animals” value (mice [1]; 300 min)?
A: The value was 0.

Q: And the behavior (beagles)?
A: Its behavior is “did not show any abnormal behavior”.

Q: And the “histological examination of organs” value (beagles)?
A: The value was “No changes could be observed”.

Q: And the spontaneous deaths (beagles)?
A: The spontaneous deaths was “Spontaneous deaths could not be observed”.

Q: What about the “effect on motility of rats (in words)” value (rats [2]) of the same compound?
A: Its value is “does not affect the motility of the rats”.

Q: And the Motility of rats (rats [2]; 60-90 min)?
A: Its Motility of rats is 235 ± 58 contacts/animal.

Q: What about the “% motility” value (rats [2]; 60-90 min, vs control) of the same compound?
A: The value was 113%.

Q: And the “stability of solid substance” value [3]?
A: Its value is “No changes could be detected either”.

Q: What about the “antiexudative effect (in words)” value (rats [4]) of the same compound?
A: Its value is “does not show any antiexudative effect in rats”.

Q: And the “Average degree of swelling” value (rats [4]; 5 hours)?
A: Its value is 239.0.

Q: And the Inhibition in % (rats [4]; 5 hours)?
A: The Inhibition in % was 13.7%.

Q: And the “effect on thrombocyte aggregation (in words)” value (thrombocyte aggregation)?
A: Its value is “does not show any effect on thrombocyte aggregation induced by collagen”.

Q: What about the inhibiting effect [5] of the same compound?
A: Its inhibiting effect is “did not show any inhibiting effect”.

Q: What about the inhibiting effect (Streptococcus Aronson) of the same compound?
A: Its inhibiting effect is “did not show any inhibiting effect”.

Q: And the inhibiting effect [6]?
A: The inhibiting effect was “did not show any inhibiting effect”.

Q: And the inhibiting effect [7]?
A: Its inhibiting effect is “did not show any inhibiting effect”.

Q: And the inhibiting effect (Sc. pyogenes ATCC 8688)?
A: The inhibiting effect was “did not show any inhibiting effect”.

Q: What about the inhibiting effect [8] of the same compound?
A: The inhibiting effect was “did not show any inhibiting effect”.

Q: And the “effect on holding ability of mice (in words)” value (mice [9])?
A: Its value is “does not affect the holding ability of mice”.

Q: And the “muscle relaxing or coordination inhibiting effect (in words)” value (mice [9])?
A: The value was “no muscle relaxing or coordination inhibiting effect”.

Q: And the “Animals which fell out” value (mice [9]; 30-60 min)?
A: Its value is 2.

Q: What about the “Animals which fell out” value (mice [9]; 90-120 min) of the same compound?
A: Its value is 2.

Q: And the “Animals which fell out” value (mice [9]; 210-240 min)?
A: Its value is 1.

Q: And the “Animals which fell out” value (mice [9]; 270-300 min)?
A: The value was 0.

Q: And the “Average value of evaluation points” value (taste testers [10]; concentration 1:25000)?
A: The value was 2.6 points.

Q: And the “Average value of evaluation points” value (taste testers [10]; concentration 1:50000)?
A: Its value is 1.2 points.

Q: And the “Average value of evaluation points” value (taste testers [10]; concentration 1:100000)?
A: The value was 0.0 points.

Q: What about the “purity of the taste” value (taste testers [11]) of the same compound?
A: The value was 94-96%.

Q: What about the After taste (taste testers [11]; 1:10000, 10 determinations) of the same compound?
A: The After taste was 5.

Q: What about the Percentage bitter (taste testers [11]; 1:10000, 10 determinations) of the same compound?
A: Its Percentage bitter is 2%.

Q: What about the Percentage other taste (taste testers [11]; 1:10000, 10 determinations) of the same compound?
A: Its Percentage other taste is 2%.

Q: And the Percentage sweet (taste testers [11]; 1:10000, 10 determinations)?
A: The Percentage sweet was 96%.
